Measured values from the NIST ThermoML archive (doi:10.1021/je800579j).

Assay: refractive index (Na D-line) (dimensionless); xn = mol fraction of the nth substance listed
Settings: Liquid, Standard Abbe refractometry

Cc1cccc(C)c1 [1,3-dimethylbenzene] + C1COCCO1
refractive index
Settings	288.15 K	293.15 K	298.15 K	303.15 K	308.15 K	313.15 K	318.15 K
x2 = 0	1.4999	1.4974	1.4948	1.4922	1.4896	1.487	1.4844
x2 = 0.0938	1.4933	1.4907	1.488	1.4853	1.4826	1.4799	1.4772
x2 = 0.1532	1.489	1.4864	1.4837	1.4811	1.4783	1.4756	1.4728
x2 = 0.2046	1.4852	1.4826	1.4799	1.4772	1.4745	1.4718	1.4691
x2 = 0.2698	1.4805	1.4779	1.4753	1.4726	1.4699	1.4672	1.4645
x2 = 0.3374	1.4755	1.473	1.4704	1.4677	1.4651	1.4624	1.4597
x2 = 0.4002	1.4709	1.4684	1.4658	1.4632	1.4606	1.458	1.4553
x2 = 0.4714	1.4656	1.4631	1.4606	1.458	1.4555	1.4529	1.4503
x2 = 0.5487	1.4598	1.4574	1.4549	1.4524	1.4498	1.4473	1.4447
x2 = 0.63	1.4536	1.4512	1.4487	1.4462	1.4437	1.4412	1.4387
x2 = 0.7182	1.4468	1.4444	1.442	1.4395	1.4371	1.4346	1.4321
x2 = 0.8035	1.4401	1.4378	1.4354	1.4329	1.4305	1.428	1.4256
x2 = 0.8708	1.4348	1.4325	1.4302	1.4279	1.4255	1.4231	1.4206
x2 = 0.9324	1.4299	1.4277	1.4255	1.4232	1.4209	1.4186	1.4163

C1COCCO1 [1,4-dioxane] + Cc1ccccc1
refractive index
Settings	288.15 K	293.15 K	298.15 K	303.15 K	308.15 K	313.15 K	318.15 K
x1 = 0.0688	1.4955	1.4927	1.4899	1.487	1.4841	1.4812	1.4783
x1 = 0.1373	1.4914	1.4886	1.4858	1.4829	1.48	1.4771	1.4742
x1 = 0.2112	1.4869	1.4842	1.4814	1.4786	1.4757	1.4729	1.47
x1 = 0.2858	1.4822	1.4795	1.4768	1.474	1.4712	1.4684	1.4655
x1 = 0.3552	1.4775	1.4749	1.4722	1.4695	1.4668	1.464	1.4613
x1 = 0.4361	1.4719	1.4693	1.4667	1.464	1.4614	1.4587	1.456
x1 = 0.5064	1.4668	1.4643	1.4617	1.4591	1.4565	1.4539	1.4512
x1 = 0.5819	1.4611	1.4586	1.4561	1.4536	1.451	1.4484	1.4458
x1 = 0.6506	1.4557	1.4533	1.4508	1.4483	1.4458	1.4433	1.4408
x1 = 0.7212	1.4499	1.4475	1.4451	1.4427	1.4403	1.4378	1.4353
x1 = 0.7903	1.444	1.4417	1.4393	1.437	1.4346	1.4322	1.4298
x1 = 0.864	1.4374	1.4352	1.4329	1.4306	1.4283	1.426	1.4236
x1 = 0.9336	1.431	1.4288	1.4266	1.4244	1.4222	1.4199	1.4176
x1 = 1	1.4245	1.4224	1.4203	1.4182	1.4161	1.4139	1.4117

C1COCCO1 [1,4-dioxane] + c1ccccc1
refractive index
Settings	288.15 K	293.15 K	298.15 K	303.15 K	308.15 K	313.15 K	318.15 K
x1 = 0.0713	1.4982	1.4951	1.4921	1.489	1.4859	1.4829	1.4798
x1 = 0.1403	1.4924	1.4894	1.4864	1.4834	1.4803	1.4773	1.4743
x1 = 0.2123	1.4864	1.4835	1.4805	1.4775	1.4746	1.4716	1.4686
x1 = 0.2809	1.4807	1.4778	1.4749	1.472	1.4691	1.4662	1.4633
x1 = 0.3528	1.4748	1.472	1.4692	1.4663	1.4635	1.4607	1.4578
x1 = 0.4195	1.4694	1.4666	1.4639	1.4611	1.4583	1.4556	1.4528
x1 = 0.5037	1.4626	1.4599	1.4573	1.4546	1.4519	1.4492	1.4465
x1 = 0.58	1.4565	1.4539	1.4513	1.4487	1.4461	1.4435	1.4409
x1 = 0.6504	1.451	1.4484	1.4459	1.4434	1.4409	1.4383	1.4357
x1 = 0.7197	1.4456	1.4432	1.4407	1.4382	1.4358	1.4332	1.4307
x1 = 0.7822	1.4408	1.4384	1.436	1.4336	1.4312	1.4287	1.4263
x1 = 0.8561	1.4352	1.4329	1.4306	1.4283	1.426	1.4236	1.4212
x1 = 0.9287	1.4298	1.4276	1.4254	1.4232	1.421	1.4187	1.4164
x1 = 1	1.4245	1.4224	1.4203	1.4182	1.4161	1.4139	1.4117

Cc1cc(C)cc(C)c1 [1,3,5-trimethylbenzene] + C1COCCO1
refractive index
Settings	288.15 K	293.15 K	298.15 K	303.15 K	308.15 K	313.15 K	318.15 K
x2 = 0	1.502	1.4995	1.4969	1.4944	1.4918	1.4893	1.4868
x2 = 0.0696	1.4969	1.4942	1.4915	1.4888	1.4861	1.4834	1.4807
x2 = 0.1408	1.4916	1.4889	1.4862	1.4835	1.4807	1.4779	1.4751
x2 = 0.2098	1.4865	1.4838	1.4811	1.4784	1.4756	1.4729	1.4701
x2 = 0.28	1.4812	1.4786	1.4758	1.4731	1.4703	1.4676	1.4648
x2 = 0.3558	1.4755	1.4729	1.4702	1.4675	1.4648	1.4621	1.4593
x2 = 0.4276	1.4701	1.4675	1.4648	1.4622	1.4595	1.4568	1.4542
x2 = 0.5066	1.4641	1.4615	1.4589	1.4563	1.4537	1.451	1.4484
x2 = 0.5801	1.4584	1.4558	1.4532	1.4506	1.448	1.4454	1.4428
x2 = 0.6548	1.4525	1.45	1.4474	1.4449	1.4423	1.4397	1.4371
x2 = 0.7227	1.447	1.4445	1.442	1.4395	1.437	1.4344	1.4318
x2 = 0.7936	1.4412	1.4388	1.4363	1.4338	1.4313	1.4288	1.4263
x2 = 0.8663	1.4354	1.433	1.4306	1.4282	1.4257	1.4233	1.4208
x2 = 0.9319	1.43	1.4277	1.4254	1.4231	1.4208	1.4184	1.4161
